Assay results from patent US20250282895A1, “PHARMACEUTICAL COMPOSITIONS OF CHEMOTHERAPEUTIC AGENTS BASED ON BETA-S[…]-AMINO ACID DERIVATIVES” (priority 2021, published 2025).

Columns and labels:
Assay type in all cases: physicochemical
[1] = Comparative stability, Formulation 4 (based on Treanda, mannitol); details: pH 4-5 (bendamustine), pH 4 (Compound (1c)•HCl)
Experimental: (§1) The stability of Compound (1c) either as the HCl salt or as the free base was compared to the stability of melphalan HCl and/or bendamustine HCl in various pharmaceutical formulations and at different concentrations and at temperatures of 0° C. or 25° C.
(§2) The stability of the compounds in the pharmaceutical formulations was determined at concentrations within the range from 0.4 mg/mL to 0.5 mg/mL, from 0.9 mg/mL to 1.1 mg/mL, and from 1.8 mg/mL to 2.1 mg/mL.
(§3) The amount of the active pharmaceutical ingredient (API) (Compound (1c), melphalan or bendamustine) in the pharmaceutical formulations at different times during storage was determined using HPLC/UV as described in detail for Example 4 and Example 5.
Treanda® is an injectable formulation of bendamustine hydrochloride, 1H-benzimidazole-2-butanoic acid, 5-[bis(2-chloroethyl)amino]-1-methyl-, 4-(5-(bis(2-chloroethyl)amino)-1-methyl-1H-benzo[d]imidazol-2-yl) butanoic acid monohydrochloride approved by the FDA. Treanda® for injection is provided in a vial containing either 25 or 100 mg of bendamustine HCl as a white to off-white lyophilized powder. Each vial contains either 25 mg or 100 mg of bendamustine hydrochloride and 42.5 mg or 170 mg of mannitol, USP, which is reconstituted in either 0.9% sodium chloride injection, USP, or 2.5% dextrose/0.45% sodium chloride solution injection, USP to a final concentration of 0.2 mg/mL-0.6 mg/mL and adjusted to a pH from 2.5 to 3.5.
A series of 12 mL glass vials each containing 12.5 mg (0.0317 mmol) of bendamustine mono-hydrochloride salt (C16H21C12N3O2·HCl, 394.72 g/mol; MedKoo, 200470) (corresponding to 11.3 mg of bendamustine as the free base) were prepared through weighing out the commercial compound into the vials. To each of the vials either containing bendamustine mono-hydrochloride salt was added 21.3 mg (0.117 mmol) of D-mannitol (C6H14O6, MW 182.17 g/mol; SigmaAldrich, M1902). The mixtures were dissolved in 2.0 mL of double distilled water (dd-H2O) (Arrowhead), the clear colorless solutions were frozen at −78° C. (dry ice/acetone bath), and the solvents were lyophilized off at about 100 mTorr within about 16 h to afford colorless solids.
A stock solution was prepared by dissolving 85.0 mg (0.255 mmol) of Compound (1c) (free base) and 170.4 mg of D-mannitol (0.935 mmol) (C6H14O6, MW 182.17 g/mol; SigmaAldrich, M1902), and 0.503 mL of 0.5072 M aq. HCl (0.255 mmol, 1.0 eq.) (Fluka, 318957) in about 16.0 mL of a mixture of acetonitrile/water (1:1, v/v) with vortexing in clean graduated glass cylinder (25 mL) to afford a stock solution of Compound (1c) as a mono-HCl salt of a concentration of 5.313 mg/mL and a D-mannitol concentration of 10.65 mg/mL. This solution was filtered through a 0.22 μm PTFE syringe filter into a clean 25 mL Erlenmeyer flask. Aliquots of 2.0 mL (2× 1.0 mL; 2× 5.313 mg) of this stock solution were rapidly pipetted into clean 12 mL scintillation vials. The aliquots were frozen at −78° C. (dry ice/acetone bath) and lyophilized at about 100 mTorr for about 16 hours to provide test vials each containing 11.8 mg (0.0319 mmol) of Compound (1c) mono-hydrochloride salt (mono-HCl salt) (corresponding to 10.6 mg of Compound (1c) as a free base) and 21.3 mg (0.117 mmol) of D-mannitol as a colorless powdery solid.
The materials in the vials were dissolved 2.5 mL of double-distilled water (dd-H2O) (Arrowhead) to provide clear colorless, non-viscous stock solutions of a concentration of 4.24 mg/mL of Compound (1c) as the monohydrochloride salt or 4.54 mg/mL of bendamustine as the mono-hydrochloride salt, respectively.
1.0 mL of the stock solution containing 4.24 mg/mL of Compound (1c) as the monohydrochloride salt was diluted with 9.0 mL of 0.9% saline to afford 10.0 mL of a test solution of a concentration of 0.424 mg/mL of Compound (1c) as the monohydrochloride salt and with a pH of about 4. […]

[2] = Comparative stability, Formulation 3 (based on Evomela, SBE6.5-β-CD); details: Formulation 3, 25° C., 0.4-0.5 mg/mL, pH 5.8-6.1 (melphalan), pH 5-6 (Compound (1c)•HCl)
Experimental: as §1, §2, §3
Evomela® is an injectable formulation of melphalan hydrochloride, 4-[bis(2-chloroethyl)amino]-L-phenylalanine hydrochloride, approved by the FDA. Evomela® is supplied as a sterile white to off-white lyophilized powder in a single-dose vial for intravenous use. Each vial containing 50 mg melphalan free base equivalent to 56 mg melphalan hydrochloride and 2,700 mg betadex sulfobutyl ether (SBE6.5-β-CD; sulfobutyl ether β-cyclodextrin sodium) sodium, NF. Normal saline solution (0.9% Sodium Chloride Injection, USP) (8.6 mL as directed) is used to reconstitute Evomela® to a total of 10 mL having a 5 mg/mL nominal concentration of melphalan. The required volume of Evomela® needed for a patient dose is withdrawn from the vial(s) and added to the appropriate volume of 0.9% Sodium Chloride Injection, USP, to a final nominal concentration of 0.45 mg/mL of melphalan. This solution is then infused via an injection port or central venous catheter.
A series of 12 mL glass vials each containing 5.5 mg (0.0165 mmol of Compound (1c) free base and 270 mg of SBE6.5-β-CD, Captisol®) were prepared as described in Example 4.
The cyclodextrin derivative/Compound (1c) free base guest-host inclusion complex was reconstituted by dissolving the guest-host inclusion complex in 0.86 mL of 0.9% saline to provide 1.0 mL of a solution having a nominal concentration of 5.5 mg/mL of Compound (1c) free base.
(§4) A 1.0 mL aliquot of this solution was diluted with 10.0 mL of 0.9% saline, and the pH adjusted with 5 μL of a saturated aqueous NaHCO3 solution to provide 11.0 mL of a clear, colorless solution having a nominal concentration of 0.50 mg/mL of Compound (1c) from Compound (1c) free base and a pH from 5.8 to 6.1.
as §4, with “4.5” for “10.0”, “5.5” for “11.0”, “1.0” for “0.50”, “of about” for “from 5.8 to”
as §4, with “1.75” for “10.0”, “2.75” for “11.0”, “2.0” for “0.50”, “of about” for “from 5.8 to”
A series of 12 mL glass vials each containing 6.1 mg (0.0165 mmol of Compound (1c) mono-hydrochloride salt (corresponding to 5.5 mg of Compound (1c) free base) and 270 mg of SBE6.5-β-CD, Captisol®) were prepared as described in Example 5.
The cyclodextrin derivative/Compound (1c) mono-HCl salt guest-host inclusion complex was reconstituted by dissolving the guest-host inclusion complex in 0.86 mL of 0.9% saline to provide 1.0 mL of a solution having a nominal concentration of 6.1 mg/mL of Compound (1c) mono-HCl salt (corresponding to a nominal concentration of 5.5 mg/mL of the Compound (1c) free base).
as §4, with “0.5” for “1.0”, “5.0” for “10.0”, “5.5” for “11.0”, “mono-hydrochloride” for “free base”, “5.3” for “5.8”, “5.5. […]” for “6.1.”

[3] = Stability of Compound (1c) free base in PBS buffer (LC/MS/MS); details: PBS buffer pH 7.4, 37° C., 1 μM
Experimental: A stability assay was carried out in 96-well microtiter plates. (S)-3-Amino-4-(5-(bis(2-chloroethyl)amino)-2-methylphenyl) butanoic acid (Compound (1c) free base) was incubated at 37° C. in phosphate buffered saline (PBS buffer), pH 7.4. The reaction mixtures (30 μL) contained a final concentration of 1 μM of Compound (1c). The percent Compound (1c) remaining in the mixture was determined using LC/MS/MS.
At each of the sampling time points, 300 μL of quench solution (50 vol-% acetonitrile, 50 vol-% methanol containing 1.3% (v/v) of 6N HCl) with internal standards (bucetin for positive ESI mode; warfarin for negative ESI mode) was transferred to each well. Plates were sealed and centrifuged at 4° C. for 15 min at 4,000 rpm. The supernatant was transferred to new plates for LC/MS/MS analysis.
All samples were analyzed on LC/MS/MS using an AB Sciex API 4000® instrument, coupled to a Shimadzu LC-20AD LC Pump system. Analytical samples were separated using a Waters Atlantis T3 dC18 reverse phase HPLC column (20 mm×2.1 mm) at a flow rate of 0.4 mL/min. The mobile phases consisted of 0.1% formic acid in water (solvent A) and 0.1% formic acid in 100% acetonitrile (solvent B).

Cl.Cn1c(CCCC(=O)O)nc2cc(N(CCCl)CCCl)ccc21 [Bendamustine•HCl, 4-(5-(bis(2-chloroethyl)amino)-1-methyl-1H-benzo[d]imidazol-2-yl) butanoic acid monohydrochloride, reference compound]
% API ([1]; Formulation 4, 0° C., 0.5 hours, 0.4-0.5 mg/mL): 98%
% API ([1]; Formulation 4, 0° C., 2.0 hours, 0.4-0.5 mg/mL): 95%
% API ([1]; Formulation 4, 25° C., 0.5 hours, 0.4-0.5 mg/mL): 98%
% API ([1]; Formulation 4, 25° C., 0.5 hours, 0.9-1.1 mg/mL): 97%
% API ([1]; Formulation 4, 25° C., 0.5 hours, 1.8-2.1 mg/mL): 95%
% API ([1]; Formulation 4, 25° C., 2.0 hours, 0.4-0.5 mg/mL): 91%
% API ([1]; Formulation 4, 25° C., 2.0 hours, 0.9-1.1 mg/mL): 95%
% API ([1]; Formulation 4, 25° C., 2.0 hours, 1.8-2.1 mg/mL): 89%

N[C@@H](Cc1ccc(N(CCCl)CCCl)cc1)C(=O)O [Melphalan free base, melphalan, reference compound]
% API ([2]; 0.5 hours): 97%
% API ([2]; 2.0 hours): 84%

Cc1ccc(N(CCCl)CCCl)cc1C[C@H](N)CC(=O)O [Compound (1c), (S)-3-amino-4-(5-(bis(2-chloroethyl)amino)-2-methylphenyl) butanoic acid]
Compound (1c) Remaining (%) ([3]; 0 min): 100%
Compound (1c) Remaining (%) ([3]; 15 min): 78%
Compound (1c) Remaining (%) ([3]; 30 min): 68%
Compound (1c) Remaining (%) ([3]; 60 min): 56%
Compound (1c) Remaining (%) ([3]; 120 min): 30%
Compound (1c) Remaining (%) ([3]; 240 min): 10%
